Data: US20050191348A1 (priority 2004, published 2005)
Marks after values point to notes of the source that are not given here.

Legend:
sAPPα = sAPPα release into medium of SH-SY5Y neuroblastoma cells; assay type: cell-based, human; details: 3 h; for sAPPα secretion (fold/basal): 1 μM, SH-SY5Y conditioned media, mean ± SE of three experiments
Procedure: For the experiments, cells were seeded (2×10^6) onto 100-mm plates (for SH-SY5Y cells) or T75 flasks (for PC12 cells) in culture medium supplemented with full serum for 48 h. The cells were replaced with fresh medium containing 0.5% FCS for an additional 24 h (subconfluent culture), and then the experiments were performed in fresh medium containing 0.5% FCS for the indicated time periods at 37° C. After incubation with various drugs, the conditioned media were collected, centrifuged at 3500 g (10 min, 4° C.) to remove cell debris, and the cleared supernatants were concentrated 10-fold by lyophilization.
(vii) Determination of sAPP. Protein concentrations of cell lysates were assayed using Bradford reagent (Sigma Chemical). Equal amounts of volumes of conditioned medium, standardized to lysate protein, were subjected to […], using either the MAbs 22C11 or 6E10 in 50 mM Tris-HCl, pH 7.4, 150 mM NaCl, containing 0.05% Tween 20 and 1% BSA. Immunoreactivity was detected using anti-mouse IgG-conjugated with HRP and an enhanced chemiluminescence method (Amersham, Pharmacia Biotech, UK). Blots were developed for different times to span a linear range of response, and the relative intensity of immunoreactive bands on the exposed films was quantified by computer-assisted densitometry program (Quantity One, Bio-Rad, Hercules, Calif., USA).
It was of interest to determine whether rasagiline and other propargylamine-containing drugs also regulate APP processing. For this purpose, SH-SY5Y neuroblastoma cells were incubated for 3 h without or with 1 μM of various drugs (TV3326 and its S-isomer TV3279, rasagiline and its S-isomer TVP1022, selegiline, aminoindan), and sAPPα was measured in the media as described in Materials and Methods.
We further characterized, in detail, the effect of rasagiline on APP processing and the signaling pathways that are involved. Thus, SH-SY5Y neuroblastoma cells were incubated for 3 h without or with increasing concentrations of rasagiline (0.1, 1 and 10 μM), and sAPPα was measured in the media as described in Materials and Methods.
For the sAPPα release, SH-SY5Y neuroblastoma cells or PC12 cells were incubated for 3 h without or with increasing concentrations of propargylamine (0.1, 1 and 10 μM), and sAPPα was measured in the media as described in Materials and Methods.

[1] = tested on: p-PKC (pan), PKCα and PKCε; experiment: PKC translocation to membrane fraction of PC12 cells; assay type: cell-based, rat; details: PC12, 100 nM, 2 h
Procedure: (v) PKC translocation. Cells were cultured to confluence and treated for 2 h with either no drug (control), phorbol 12-myristate-13-acetate (PMA) (positive control) or rasagiline. After washing, the cells were harvested, collected by centrifugation (5 min, 1500 rpm), and homogenized by sonication (12 s, 22μ) in homogenization buffer (20 mM Tris-HCl, pH 7.4, 0.32 M sucrose, 2 mM EDTA, 50 mM β-mercaptoethanol) containing a protease inhibitor cocktail (Sigma Aldrich, Sweden). Cytosolic and particulate fractions were separated by ultracentrifugation (30 min, 100,000 g, 4° C.). For the particulate fraction, proteins were extracted by a 45 min incubation on ice in homogenization buffer containing 0.5% Triton X-100. Samples were then sonicated for 1 min and equivalent amounts of protein (15 μg) separated by PAGE followed by blotting onto nitrocellulose paper. Western blotting was performed essentially as described above using antibodies against p-PKC (pan), PKCα and PKCε.
PKC translocation to the membrane fraction upon activation and membrane localization is often used as a marker for PKC activation.

MAPK = MAPK activation (phospho-p44/42 MAPK immunoblot) in PC12 cells; assay type: cell-based, rat
Procedure: (viii) Extracellular signal-regulated kinase (ERK) activity. The kinase activity of the ERKs was measured using the MAPK assay kit (Cell Signaling Technology) according to the manufacturer's protocol. In brief, for kinase activity assays, PC12 cells were grown in 6-well plates (5×10^5 cells/well). Eighteen to twenty-four hours before experiments, the medium was replaced with DMEM with 0.5% FCS and treated as described in the figures. Experimental treatments were performed in 1 ml medium containing 0.5% FCS, with the vehicle or test drugs and/or inhibitors at 37° C., as described in the figures. After treatment, reactions were stopped by placing cells on ice and aspirating the medium. Cells were harvested in 50 mM Tris-HCl, pH 8.0, 150 mM NaCl, 5 mM EDTA, 1 mM DTT, 1% Triton X-100, and protease- and phosphatase-inhibitor cocktails. Protein concentration was determined by the Bradford method. As described previously (Yogev-Falach et al., 2002), each cell lysate, containing 30 μg protein, was separated on 4-12% SDS-polyacrylamide electrophoresis gels, immunoblotted, and identified using phospho-p44/42 MAPK (Thr202/Tyr204) antibody or p44/42 MAPK antibody. Data are representative of three to six independent experiments.
To study the effect of rasagiline on MAPK activation, PC12 cells were treated for 0.5 h with increasing concentrations of rasagiline (0.1, 1 and 10 μM), and quantification of the phospho-MAPK blots were normalized using the total MAPK blots, or PC12 cells were preincubated for 15 min with vehicle alone, or with PD98059 (30 μM) or GF109203X (2.5 μM) and then incubated without or with rasagiline (10 μM) for 0.5 h. Aliquots of cell lysates were then subjected to immunoblot analysis and probed with anti-phospho-MAPK (top blots) and anti-MAPK (bottom blots).
For the effect of propargylamine on MAPK activation, PC12 cells were treated for 0.5 h with increasing concentrations of propargylamine (0.1, 1 and 10 μM). Aliquots of cell lysates were then subjected to immunoblot analysis and probed with anti-phospho-MAPK and anti-MAP kinase. Quantification of the phospho-MAPK were normalized using the total MAPK blots.

[2] = tested on: Bcl-2 family and PKC isoform mRNA; experiment: Gene expression by quantitative real-time RT-PCR in serum-free PC12 cells; assay type: cell-based, rat
Procedure: (vi) Total RNA extraction. PC12 cells were cultured in DMEM containing 5% FCS and 10% horse serum until confluence. At the day of the experiment, the medium was replaced with fresh medium without serum and rasagiline or propargylamine at various concentrations were administered for 24 h. At the end of incubation, the medium was removed and isolation of total RNA was performed, using Tri Reagent™ Isolation reagent. Total RNA was treated with DNase-RNase free (Roche Diagnostics, Mannheim, Germany) for 30 min at 37° C. and subsequently extracted by a round of phenol:chlorophorm:isoamylalcohol (25:24:1), followed by one of chloroform. After precipitation with NaOAc (0.3 M) and ethyl alcohol, the RNA pellet was washed with 80% ethyl alcohol (12,000×g) for 10 min and resuspended in 50-100 μl of diethylpyrocarbonate (DEPC)-treated water and incubated for 5-10 min at 56° C. to facilitate resuspension.
(vi) Reverse transcription (RT) and quantitative real-time RT-PCR. In order to confirm the results obtained with the customized cDNA expression micro-array, 2 μg of total RNA were denatured and reverse transcribed using random hexanucleotides (0.5 μg/μl). Secondary structures of the template and primer (total volume of 16 μl) were opened by incubation for 5 min at 70° C. and immediately cooled on ice. Reaction mix (9 μl) containing reaction buffer, dNTP (0.5 mm each), RNAasin™ RNAase inhibitor (Promega) (25U) and M-MLV reverse transcriptase (200U) was added and samples were incubated at 39° C. for 1 h. For every RNA preparation a negative control was run in parallel consisting of a direct amplification of the RNA sample, omitting the RT step. The samples were transferred to 92° C. for 10 min, in order to deactivate the enzyme, and then cooled to 4° C.
Quantitative real-time PCR, using LightCycler and FastStart DNA Master SYBR Green I ready-to use PCR mix, was performed according to the manufacture's protocol (Roche Diagnostics, Mannheim, Germany). cDNA (40 ng) was amplified in 20 μl total volume. The sequences of the primers and the size of the products are described in Table 1. The results are analyzed on the provided program of the LightCycler. The relative expression level of a given mRNA was assessed by normalizing to the housekeeping gene 18S-rRNA and compared with control values.
In this experiment, we examined whether Bcl-2 family proteins mediate the pro-survival effect of rasagiline, using serum-starved rat pheochromocytoma PC12 cell line as a model of neuronal apoptosis. PC12 cells were maintained in full-serum (control), or in serum-free (SF) media in the absence or presence of various concentrations of rasagiline (0.001, 0.1, 1 and 10 μM) for 3 h or 24 h, and gene expression was measured by quantitative real-time RT-PC. The real-time RT-PCR consists of RNA samples isolated from said PC-12 cells. Each gene expression was normalized to the housekeeping gene, 18S-rRNA, since this transcript was reported to be less susceptible to the influence by external factors.
The effect of propargylamine on Bad and Bax mRNA levels was examined as described in Example 5 above.

PKC = PKC phosphorylation in PC12 cell lysates, Western blot with p-PKC (pan) antibody; assay type: cell-based, rat; details: PC12, pre-treatment 2.5 μM
Procedure: (iv) Immunoblot Analyses. For Western blot analyses, attached cells were washed once in cold PBS and then lysed in 1× nonreducing Laemmli buffer followed by boiling for 3-5 min. Protein content was determined using the Bradford method. Equal amounts of protein were separated by SDS-polyacrylamide gel electrophoresis and blotted onto polyvinylidene difluoride (PVDF) membranes (Millipore). Membranes were treated with blocking buffer (5% dry milk in PBS or 5% dry milk, 0.05% Tween 20 (Sigma) in TBS). Primary antibodies were diluted in PBS or in TBS containing 5% BSA, 0.05% Tween 20 and incubated with membranes for 20 h at 4° C., followed by incubation (1 h at room temperature) in dilutions of horseradish peroxidase (HRP)-conjugated secondary antibodies in the same buffers. Following antibody incubations, membranes were washed in 0.5% Tween 20 in PBS or TBS. Detection was achieved using ECL™ Western Blotting Detection Reagent (Amersham, Pharmacia, Little Chalfort Buckinghamshire, UK). Quantification of results was accomplished by measuring the optical density of the labeled bands from the autoradiograms by scanning laser densitometry using the computerized imaging program Bio-ID (Imager, Bio1D software; Vilber Lourmat, Marne La Vallee, France). The values were normalized to β-actin intensity levels.
Since activation of PKC has been shown previously to modulate cell viability, resulting in protection of neuronal cells, it was of interest to investigate the effects of rasagiline on PKC activation. In one experiment, PC12 cells were untreated or treated with various concentrations of rasagiline (0.1, 1 and 10 μM) for 1 hour. […] Phosphorylation of PKC was analyzed in cell lysates by Western blotting and detected with p-PKC (pan) antibody.
The effect of propargylamine on PKC phosphorylation/activation was investigated as described in Example 2 above.

caspase-3, BAD = experiment: Serum free-induced caspase-3 cleavage and BAD levels (rasagiline, data not shown); assay type: cell-based
PC12 cells = details: PC12, 10 μM, 24 h

Molecule: C#CCN[C@@H]1CCc2ccc(OC(=O)N(C)CC)cc21 [TV3326, (N-propargyl-(3R)aminoindan-5yl)-ethyl methyl carbamate]
- sAPPα secretion (fold/basal) (sAPPα): 2.86 ± 0.35^b fold/basal

Molecule: C#CCN[C@H]1CCc2ccc(OC(=O)N(C)CC)cc21 [TV3279]
- sAPPα secretion (fold/basal) (sAPPα): 2.76 ± 0.36^b fold/basal

Molecule: CCCCCCCCCCCCCC(=O)O[C@@H]1[C@@H](C)[C@@]2(O)[C@@H](C=C(CO)C[C@]3(O)C(=O)C(C)=C[C@@H]23)[C@@H]2C(C)(C)[C@]12OC(C)=O [PMA, phorbol 12-myristate-13-acetate]
- translocation of PKCα [1]: 157%
- translocation of PKCε [1]: 212%
- translocation of p-PKC (pan) [1]: 214%

Molecule: COc1cccc(-c2cc(=O)c3ccccc3o2)c1N [PD98059]
- effect on rasagiline-induced MAPK phosphorylation (MAPK; PC12, pretreatment 30 μM, rasagiline 10 μM 0.5 h): blocked the rasagiline-induced increase of MAPK phosphorylation

Molecule: C#CCN[C@@H]1CCc2ccccc21 [Rasagiline, N-propargyl-(1R)-aminoindan]
- Bad mRNA reduction ([2]; 1 μM, 3 h): 1.35 fold vs. serum free treatment
- Bcl-xL mRNA expression increase ([2]; 10 μM, 24 h, compared to serum-free culture): about 2 fold
- Bad mRNA reduction ([2]; 0.01 and 0.1 μM, 24 h): ~2.5 fold vs. serum free culture
- Bcl-W mRNA expression ([2]; 0.1, 1 and 10 μM, 24 h): 135 % of serum-free culture
- sAPPα secretion (fold/basal) (sAPPα): 2.97 ± 0.15^b fold/basal
- increase in sAPPα secretion over the basal levels (sAPPα; SH-SY5Y, 10 μM (maximal effect)): ~3.0 fold
- lowest dose giving MAPK activation (MAPK; PC12, 0.5 h): 0.1 µM

Molecule: CN(C)CCCn1cc(C2=C(c3c[nH]c4ccccc34)C(=O)NC2=O)c2ccccc21 [GF109203X]
- effect on propargylamine-induced PKC phosphorylation (PKC; propargylamine 1 μM 1 h): blocked the effect of propargylamine on PKC phosphorylation
- effect on rasagiline-induced PKC phosphorylation (PKC; rasagiline 1 μM 1 h): significantly reduced rasagiline-induced PKC phosphorylation
- effect on rasagiline-induced MAPK activation (MAPK; PC12, preincubation 2.5 μM, rasagiline 10 μM 0.5 h): abolished the effect of rasagiline on MAPK activation
- effect on rasagiline-induced decrease of BAD (caspase-3, BAD): blocked
- effect on rasagiline suppression of caspase-3 cleavage (caspase-3, BAD; data not shown): reversed

Molecule: NC1CCc2ccccc21 (centres unmarked) [Aminoindan, aminoindan]
- sAPPα secretion (fold/basal) (sAPPα): 1.23 ± 0.32 fold/basal
- sAPPα released into the medium (sAPPα; SH-SY5Y, 0.1, 1 and 10 μM, versus untreated cells): did not show such effects
- MAPK phosphorylation (MAPK; PC12, 0.1, 1 and 10 μM, 0.5 h): did not show such effects

Molecule: C#CCN(C)[C@H](C)Cc1ccccc1 [Selegiline, R-(−)-N-methyl-N-(prop-2-ynyl)-2-aminophenylpropane]
- sAPPα secretion (fold/basal) (sAPPα): 2.03 ± 0.21^c fold/basal

Molecule: Aβ1-42: amyloidogenic Aβ peptide, used as toxic insult
- cell viability (PC12 cells): 66 % of control
